According to ChEMBL document CHEMBL1129930, “Analogues of methotrexate in rheumatoid arthritis. 2. Effects of 5-deazaaminopterin, 5,10-dideazaaminopterin, and analogues on type II collagen-induced arthritis in mice” (J Med Chem, 1997):

Tests used:
L1210 = test: Concentration required to inhibit the growth of L1210 cells.; format: functional, cell-based; conditions: Mus musculus
Mus musculus [1] = test: Tested for antiinflammatory activity on mouse type II collagen arthritis as Paw swelling of all animals in each group on day 37 at intraperitoneal dose of 6 mg/kg; format: functional
Mus musculus [2] = test: Tested for antiinflammatory activity on mouse type II collagen arthritis as Paw swelling of all animals in each group on day 30 at intraperitoneal dose of 3 mg/kg; format: functional
Mus musculus [3] = test: Tested for antiinflammatory activity on mouse type II collagen arthritis as Paw swelling of all animals in each group on day 44 at intraperitoneal dose of 3 mg/kg; format: functional
Mus musculus [4] = test: Incidence of disease (mouse type II collagen) was scored as the percentage of animals within each experimental group that exhibited joint or limb inflammation on day 37 at intraperitoneal dose of 6 mg/kg; format: functional
Mus musculus [5] = test: Incidence of disease (mouse type II collagen) was scored as the percentage of animals within each experimental group that exhibited joint or limb inflammation on day 37 at intraperitoneal dose of 1.5 mg/kg; format: functional
Mus musculus [6] = test: Tested for antiinflammatory activity on mouse type II collagen arthritis as Paw swelling of all animals in each group on day 23 at intraperitoneal dose of 3 mg/kg; format: functional
Mus musculus [7] = test: Incidence of disease (mouse type II collagen) was scored as the percentage of animals within each experimental group that exhibited joint or limb inflammation on day 44 at intraperitoneal dose of 1.5 mg/kg; format: functional
Mus musculus [8] = test: Tested for antiinflammatory activity on mouse type II collagen arthritis as Paw swelling of all animals in each group on day 44 at intraperitoneal dose of 1.5 mg/kg; format: functional
[9] = Concentration required to inhibit the growth of chang liver cells.; format: functional; conditions: Homo sapiens
Mus musculus [10] = test: Tested for antiinflammatory activity on mouse type II collagen arthritis as Paw swelling of all animals in each group on day 30 at intraperitoneal dose of 1.5 mg/kg; format: functional
Mus musculus [11] = test: Tested for antiinflammatory activity on mouse type II collagen arthritis as Paw swelling of all animals in each group on day 37 at intraperitoneal dose of 1.5 mg/kg; format: functional
Mus musculus [12] = test: Incidence of disease (mouse type II collagen) was scored as the percentage of animals within each experimental group that exhibited joint or limb inflammation on day 30 at intraperitoneal dose of 1.5 mg/kg; format: functional
Mus musculus [13] = test: Incidence of disease (mouse type II collagen) was scored as the percentage of animals within each experimental group that exhibited joint or limb inflammation on day 23 at intraperitoneal dose of 1.5 mg/kg; format: functional
Mus musculus [14] = test: Tested for antiinflammatory activity on mouse type II collagen arthritis as Paw swelling of all animals in each group on day 30 at intraperitoneal dose of 6 mg/kg; format: functional
Mus musculus [15] = test: Incidence of disease (mouse type II collagen) was scored as the percentage of animals within each experimental group that exhibited joint or limb inflammation on day 37 at intraperitoneal dose of 3 mg/kg; format: functional
Mus musculus [16] = test: Incidence of disease (mouse type II collagen) was scored as the percentage of animals within each experimental group that exhibited joint or limb inflammation on day 23 at intraperitoneal dose of 3 mg/kg; format: functional
Mus musculus [17] = test: Incidence of disease (mouse type II collagen) was scored as the percentage of animals within each experimental group that exhibited joint or limb inflammation on day 30 at intraperitoneal dose of 3 mg/kg; format: functional
Mus musculus [18] = test: Incidence of disease (mouse type II collagen) was scored as the percentage of animals within each experimental group that exhibited joint or limb inflammation on day 30 at intraperitoneal dose of 6 mg/kg; format: functional
Mus musculus [19] = test: Tested for antiinflammatory activity on mouse type II collagen arthritis as Paw swelling of all animals in each group on day 23 at intraperitoneal dose of 6 mg/kg; format: functional
Mus musculus [20] = test: Incidence of disease (mouse type II collagen) was scored as the percentage of animals within each experimental group that exhibited joint or limb inflammation on day 44 at intraperitoneal dose of 6 mg/kg; format: functional
Mus musculus [21] = test: Incidence of disease (mouse type II collagen) was scored as the percentage of animals within each experimental group that exhibited joint or limb inflammation on day 23 at intraperitoneal dose of 6 mg/kg; format: functional
Mus musculus [22] = test: Tested for antiinflammatory activity on mouse type II collagen arthritis as Paw swelling of all animals in each group on day 23 at intraperitoneal dose of 1.5 mg/kg; format: functional
Mus musculus [23] = test: Tested for antiinflammatory activity on mouse type II collagen arthritis as Paw swelling of all animals in each group on day 37 at intraperitoneal dose of 3 mg/kg; format: functional
Mus musculus [24] = test: Tested for antiinflammatory activity on mouse type II collagen arthritis as Paw swelling of all animals in each group on day 44 at intraperitoneal dose of 6 mg/kg; format: functional
Mus musculus [25] = test: Incidence of disease (mouse type II collagen) was scored as the percentage of animals within each experimental group that exhibited joint or limb inflammation on day 44 at intraperitoneal dose of 3 mg/kg; format: functional
Mus musculus [26] = test: Tested for antiinflammatory activity on mouse type II collagen arthritis as Paw swelling of all animals in each group on day 23 at intraperitoneal dose of 12 mg/kg; format: functional
Mus musculus [27] = test: Tested for antiinflammatory activity on mouse type II collagen arthritis as Paw swelling of all animals in each group on day 30 at intraperitoneal dose of 12 mg/kg; format: functional
Mus musculus [28] = test: Incidence of disease (mouse type II collagen) was scored as the percentage of animals within each experimental group that exhibited joint or limb inflammation on day 30 at intraperitoneal dose of 12 mg/kg; format: functional
Mus musculus [29] = test: Incidence of disease (mouse type II collagen) was scored as the percentage of animals within each experimental group that exhibited joint or limb inflammation on day 37 at intraperitoneal dose of 12 mg/kg; format: functional
Mus musculus [30] = test: Tested for antiinflammatory activity on mouse type II collagen arthritis as Paw swelling of all animals in each group on day 44 at intraperitoneal dose of 12 mg/kg; format: functional
Mus musculus [31] = test: Incidence of disease (mouse type II collagen) was scored as the percentage of animals within each experimental group that exhibited joint or limb inflammation on day 44 at intraperitoneal dose of 12 mg/kg; format: functional
Mus musculus [32] = test: Incidence of disease (mouse type II collagen) was scored as the percentage of animals within each experimental group that exhibited joint or limb inflammation on day 23 at intraperitoneal dose of 12 mg/kg; format: functional
Mus musculus [33] = test: Tested for antiinflammatory activity on mouse type II collagen arthritis as Paw swelling of all animals in each group on day 37 at intraperitoneal dose of 12 mg/kg; format: functional

SMILES	IC50 (L1210) [nM]	Paw swelling (Mus musculus [1]) [mm]	Paw swelling (Mus musculus [2]) [mm]	Paw swelling (Mus musculus [3]) [mm]	Animals (Mus musculus [4]) [%]	Animals (Mus musculus [5]) [%]	Paw swelling (Mus musculus [6]) [mm]	Animals (Mus musculus [7]) [%]	IC50 [9] [nM]	Paw swelling (Mus musculus [14]) [mm]	Animals (Mus musculus [15]) [%]	Animals (Mus musculus [16]) [%]	Animals (Mus musculus [17]) [%]	Animals (Mus musculus [18]) [%]	Paw swelling (Mus musculus [19]) [mm]	Animals (Mus musculus [20]) [%]	Animals (Mus musculus [21]) [%]	Paw swelling (Mus musculus [23]) [mm]	Paw swelling (Mus musculus [24]) [mm]	Animals (Mus musculus [25]) [%]	other results
CCCN(Cc1cnc2nc(N)nc(N)c2c1C)c1ccc(C(=O)NC(CCC(=O)O)C(=O)O)cc1 (stereo not drawn)	11	2.2	2.13	2.16	12	12	2.12	25	14	2.19	0	0	0	12	2.16	25	0	2.17	2.24	0	Paw swelling (Mus musculus [8]): 2.22 mm; Paw swelling (Mus musculus [10]): 2.15 mm; Paw swelling (Mus musculus [11]): 2.21 mm; Animals (Mus musculus [12]): 0%; Animals (Mus musculus [13]): 0%; Paw swelling (Mus musculus [22]): 2.15 mm
Cc1c(CCc2ccc(C(=O)NC(CCC(=O)O)C(=O)O)cc2)cnc2nc(N)nc(N)c12 (stereo not drawn)	379	2.81	2.73	3.12	100	–	2.21	–	334	2.77	100	25	100	100	2.3	100	38	3.09	2.97	100	Paw swelling (Mus musculus [26]): 2.32 mm; Paw swelling (Mus musculus [27]): 2.71 mm; Animals (Mus musculus [28]): 75%; Animals (Mus musculus [29]): 88%; Paw swelling (Mus musculus [30]): 2.85 mm; Animals (Mus musculus [31]): 100%; Animals (Mus musculus [32]): 50%; Paw swelling (Mus musculus [33]): 3.01 mm
CCC(Cc1cnc2nc(N)nc(N)c2c1)c1ccc(C(=O)NC(CCC(=O)O)C(=O)O)cc1 (stereo not drawn)	75	2.8	2.43	2.7	88	88	2.26	88	12	2.57	100	25	88	100	2.2	100	12	2.67	2.76	100	Paw swelling (Mus musculus [8]): 2.59 mm; Paw swelling (Mus musculus [10]): 2.31 mm; Paw swelling (Mus musculus [11]): 2.48 mm; Animals (Mus musculus [12]): 62%; Animals (Mus musculus [13]): 25%; Paw swelling (Mus musculus [22]): 2.17 mm
